# Source: patent US20210179686A1, “CELL SORTING SYSTEMS AND METHODS OF USE” (MEMORIAL SLOAN-KETTERING CANCER CENTER, priority 2018, published 2021)
# Legend:
# FLAG-RR12EE345L = test: capture and presentation of secreted FLAG leucine zipper by mutant blocking leucine zippers in C1498 cells; assay type: cell-based; details: FIG. 20
# Source text: A series of mutations were made in the “g” residues of the blocking leucine zipper to reduce heterodimerization affinity between the capture leucine zipper and the linked blocking leucine zipper. The following six mutants were made: 1N mutant: E1R2EE345L (having the amino acid sequence set forth in SEQ ID NO: 98), 1M mutant: RR123E45L (having the amino acid sequence set forth in SEQ ID NO: 99), 2N mutant: EE12345L (having the amino acid sequence set forth in SEQ ID NO: 102), 2M mutant: RR1234E5L (having the amino acid sequence set forth in SEQ ID NO: 103), 3N mutant: EE12R3E45L (having the amino acid sequence set forth in SEQ ID NO: 106), and 3C mutant: RR12345L (having the amino acid sequence set forth in SEQ ID NO: 107).
# C1498 cells were co-transduced with the FLAG-RR12EE345L GFP vector and one of the six mutants as part of RR12EE345L linker EE12RR345L BFP vector constructs. […] Thus, mutating the […] leucine zipper at “g” position residues to include repulsive amino acid interactions can reduce the degree of blocking by the linked […]-based mutant leucine zipper.
# iCaspase 9 = target: T1, iCaspase 9 (Homo sapiens, UniProt P55211, Q221R); test: activation of iCaspase 9 suicide gene by chemical inducer of dimerization in sorted dual-transduced T cells; assay type: cell-based, mouse
# T1 construct: […]; expressed in transfected cells
# Procedure: FIG. 5 depicts purification and testing of dual-transduced cells with iCaspase 9 and CD20-CAR. T cells comprising RR12EE345L-FLAG iCaspase 9 (vector 1) and RR12EE345L-linker-EE12RR345L-Thy1.1 CD20-CAR (vector 2) were incubated with EL4-CD19 and EL4-CD20 targets in the presence or absence of chemical inducer of dimerization (CID).
# IL-18 secretion was assessed by ELISA. Interferon gamma secretion was assessed by cytometric bead array.
# CD20 mimotope = test: antibody plus complement depletion of double transduced C1498 cells; assay type: cell-based; details: RQR-RR12EE345L plus capture leucine zipper, in the presence of complement, FIG. 18
# Procedure: Next, C1498 cells were double transduced with capture leucine zippers as shown in FIG. 18 and a second vector encoding the tandem CD20 mimotope/CD34 leucine zipper tag (RQR-RR12EE345L). Subsequently, the cells were incubated with anti-CD20 antibody Rituximab or irrelevant antibody Cetuximab in the presence of complement.
# T1 sequence (P55211 with tags, fused parts or gaps Q221R): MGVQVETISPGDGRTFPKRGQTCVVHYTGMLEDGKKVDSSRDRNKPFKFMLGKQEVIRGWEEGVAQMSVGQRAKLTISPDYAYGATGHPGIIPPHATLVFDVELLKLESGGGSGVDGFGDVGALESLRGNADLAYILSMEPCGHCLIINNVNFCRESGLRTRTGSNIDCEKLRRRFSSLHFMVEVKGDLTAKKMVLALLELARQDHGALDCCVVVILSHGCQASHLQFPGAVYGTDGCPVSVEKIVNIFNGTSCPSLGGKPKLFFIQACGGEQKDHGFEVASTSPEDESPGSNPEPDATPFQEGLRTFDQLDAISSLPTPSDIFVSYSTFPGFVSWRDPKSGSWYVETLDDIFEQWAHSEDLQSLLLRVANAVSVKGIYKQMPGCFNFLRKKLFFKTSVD
# Chain of FLAG-RR12EE345L (as listed by the source): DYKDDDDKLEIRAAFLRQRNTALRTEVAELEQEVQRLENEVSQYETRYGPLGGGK
# Chain of CD20 mimotope (as listed by the source): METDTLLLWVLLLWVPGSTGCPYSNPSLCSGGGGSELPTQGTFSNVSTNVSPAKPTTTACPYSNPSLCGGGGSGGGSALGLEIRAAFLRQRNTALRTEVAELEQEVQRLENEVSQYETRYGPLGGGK
compound,measurement,setting,value
"3N mutant: blocking leucine zipper mutant, amino acid sequence SEQ ID NO: 106 (LEIEAAFLRQENTALRTRVAELEQEVQRLENEVSQYETRYGPLGGGK)",presentation of secreted leucine zipper,FLAG-RR12EE345L; C1498 cells co-transduced with FLAG-RR12EE345L GFP vector,enhanced presentation of secreted leucine zipper
same,FLAG binding,FLAG-RR12EE345L; double transduced and single-transduced capture-zipper-only C1498 cells,"increased FLAG binding in double transduced cells (intracellular pairing), but also in single-transduced capture leucine zipper-only cells (extracellular pairing)"
CC[C@H](C(=O)N1CCCC[C@H]1C(=O)O[C@H](CCc1ccc(OC)c(OC)c1)c1cccc(OCC(=O)NCC(CNC(=O)COc2cccc([C@@H](CCc3ccc(OC)c(OC)c3)OC(=O)[C@@H]3CCCCN3C(=O)[C@@H](CC)c3cc(OC)c(OC)c(OC)c3)c2)CN(C)C)c1)c1cc(OC)c(OC)c(OC)c1 [chemical inducer of dimerization],induction of T cell apoptosis,"iCaspase 9; T cells with iCaspase 9 on one vector and CD20-CAR on the other, FIG. 5",> 90%
same,cell death,"iCaspase 9; sorted cells with two vectors expressing CD19-CAR, CD20-CAR and iCaspase9, optionally IL-18, FIG. 6",about 90%
Rituximab,depletion of cells,CD20 mimotope,selective depletion of double transduced cells
